Consider 4 compounds from US8912219B2, “Aryl sulfamide and sulfamate derivatives as RORc modulators” (Genentech, Inc., priority 2013, dated 2014).

As usually defined, the IC50 is the midpoint of a concentration-inhibition curve. Low readings indicate greater potency, high ones weaker potency.

The target of this test is RORc ligand binding domain (Homo sapiens (Human), UniProt P51449).
RORc ligand binding domain, sequence (P51449 269-508): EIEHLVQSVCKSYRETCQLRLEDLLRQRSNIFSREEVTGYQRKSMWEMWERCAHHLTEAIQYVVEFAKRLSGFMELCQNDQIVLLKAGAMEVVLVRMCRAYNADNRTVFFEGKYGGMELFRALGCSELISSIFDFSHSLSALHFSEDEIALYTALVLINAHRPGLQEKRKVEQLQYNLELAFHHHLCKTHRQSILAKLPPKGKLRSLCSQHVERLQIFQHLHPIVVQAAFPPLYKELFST

In turn, `CC(=O)N1CCN(c2ccc(CN(C3CCC3)S(=O)(=O)N(C)c3ccccc3)c(F)c2)CC1` [Compound 2, 1-(4-(4-acetylpiperazin-1-yl)-2-fluorobenzyl)-1-cyclobutyl-3-methyl-3-phenyl-sulfonamide] gave an IC50 of 28 nM. That is a double-digit nanomolar value.

Turning to `CS(=O)(=O)N1CCC(Oc2ccc(N3CCN(Cc4ccc(F)cc4)S3(=O)=O)cc2)CC1` [Compound 3, 2-(4-fluorobenzyl)-5-(4-((1-(methylsulfonyl)piperidin-4-yl)oxy)phenyl)-1,2,5-thiadiazolidine 1,1-dioxide], the IC50 was determined as 6420 nM.

Take `CC(C)CN(Cc1ccc(F)cc1)S(=O)(=O)Nc1ccc(OC2CCN(S(C)(=O)=O)CC2)cc1` [Compound 4, 1-(4-fluorobenzyl)-1-isobutyl-3-(4-((1-(methylsulfonyl)piperidin-4-yl)oxy)phenyl)-sulfamide]: the 50% inhibitory concentration (IC50) was 230 nM. Against the preceding compound, the IC50 is about 28-fold lower.

In the case of `CC(=O)N1CCN(c2ccc(CN(C3CCC3)S(=O)(=O)Oc3ccccc3)c(F)c2)CC1` [Compound 10, phenyl 4-(4-acetylpiperazin-1-yl)-2-fluorobenzyl(cyclobutyl)sulfamate], the IC50 was determined as 7 nM.
